Source: the supplement of paper PMC10307832

How the values were obtained:
Test in all cases: relative viability (nuclei count vs DMSO), 5 days (fraction); higher = more cells survive
[1] = compound: O=S(=O)(c1ccccc1)N(CC(F)(F)F)c1ccc(C(O)(C(F)(F)F)C(F)(F)F)cc1 + CC(=O)c1c(C)c2cnc(Nc3ccc(N4CCNCC4)cn3)nc2n(C2CCCC2)c1=O [Palbociclib] (partner 0.5 µM)
Procedure, shortened: (§1)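 The day after seeding in 1536-well plates, lung cancer cell lines were treated by pin tool with a single drug, or with a fixed anchor-drug dose together with five library-drug doses (not always all listed) in √10 steps. After 5 days, a combined fix-and-stain solution (final 0.05% Triton X-100, 1% formaldehyde, 1 ug/ml Hoechst) was added. Nuclei counted on 4× images gave relative viability as treated counts over vehicle counts, reported as the median of duplicate plates.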

[2] = compound: O=S(=O)(c1ccccc1)N(CC(F)(F)F)c1ccc(C(O)(C(F)(F)F)C(F)(F)F)cc1 + NC(=O)Nc1cc(-c2cccc(F)c2)sc1C(=O)N[C@H]1CCCNC1 [AZD7762] (partner 0.2 µM)
Procedure, shortened: as §1

[3] = compound: O=S(=O)(c1ccccc1)N(CC(F)(F)F)c1ccc(C(O)(C(F)(F)F)C(F)(F)F)cc1 + CC1(C)CCC(c2ccc(Cl)cc2)=C(CN2CCN(c3ccc(C(=O)NS(=O)(=O)c4ccc(N[C@H](CCN5CCOCC5)CSc5ccccc5)c(S(=O)(=O)C(F)(F)F)c4)cc3)CC2)C1 [Navitoclax] (partner 0.5 µM)
Procedure, shortened: as §1

RO-3306 + Palbociclib = compound: C1=CC2=C(C=CC(=C2)C=C3C(=O)NC(=NCC4=CC=CS4)S3)N=C1 [RO-3306] + CC(=O)c1c(C)c2cnc(Nc3ccc(N4CCNCC4)cn3)nc2n(C2CCCC2)c1=O [Palbociclib] (partner 0.5 µM)
Procedure, shortened: as §1

[4] = compound: O=S(=O)(c1ccccc1)N(CC(F)(F)F)c1ccc(C(O)(C(F)(F)F)C(F)(F)F)cc1 + N=C(N)NC(=N)NCCc1ccccc1 [Phenformin] (partner 250 µM)
Procedure, shortened: as §1

[5] = compound: O=S(=O)(c1ccccc1)N(CC(F)(F)F)c1ccc(C(O)(C(F)(F)F)C(F)(F)F)cc1 + C[C@]1(O)C[C@@H](c2nc(-c3ccc4ccc(-c5ccccc5)nc4c3)c3c(N)nccn32)C1 [Linsitinib] (partner 1 µM)
Procedure, shortened: as §1

| Cell Line | relative viability ([1]; first compound 0.8 µM) | relative viability ([1]; first compound 2.53 µM) | relative viability ([1]; first compound 8 µM) | relative viability ([2]; first compound 0.8 µM) | relative viability ([2]; first compound 2.53 µM) | relative viability ([2]; first compound 8 µM) | relative viability ([3]; first compound 0.8 µM) | relative viability ([3]; first compound 2.53 µM) | relative viability ([3]; first compound 8 µM) | relative viability (RO-3306 + Palbociclib; first compound 0.01 µM) | relative viability (RO-3306 + Palbociclib; first compound 0.03162 µM) | relative viability (RO-3306 + Palbociclib; first compound 0.1 µM) | relative viability (RO-3306 + Palbociclib; first compound 0.3162 µM) | relative viability (RO-3306 + Palbociclib; first compound 1 µM) | relative viability ([4]; first compound 0.8 µM) | relative viability ([4]; first compound 2.53 µM) | relative viability ([4]; first compound 8 µM) | relative viability ([5]; first compound 0.8 µM) | relative viability ([5]; first compound 2.53 µM) | relative viability ([5]; first compound 8 µM) |
| --- | --- | --- | --- | --- | --- | --- | --- | --- | --- | --- | --- | --- | --- | --- | --- | --- | --- | --- | --- | --- |
| HCC-44 | 0.982 | 0.913 | 0.903 | 1.04 | 0.988 | 0.994 | 1.09 | 1.01 | 0.933 | 1.01 | 0.932 | 0.993 | 0.96 | 0.952 | 0.198 | 0.185 | 0.185 | 0.717 | 0.705 | 0.658 |
| HCC-78 | 0.522 | 0.445 | 0.475 | 0.647 | 0.552 | 0.535 | 0.792 | 0.67 | 0.622 | 0.483 | 0.518 | 0.504 | 0.548 | 0.403 | 0.631 | 0.612 | 0.581 | 0.45 | 0.426 | 0.444 |
| HCC-366 | 0.649 | 0.379 | 0.239 | 0.277 | 0.317 | 0.14 | 1.19 | 1.03 | 1.03 | 0.531 | 0.395 | 0.381 | 0.382 | 0.316 | 0.693 | 0.568 | 0.48 | 0.922 | 0.601 | 0.649 |
| HCC-827 | 0.513 | 0.418 | 0.388 | 0.209 | 0.187 | 0.178 | 1.02 | 0.999 | 0.949 | 0.462 | 0.477 | 0.461 | 0.54 | 0.54 | 0.448 | 0.411 | 0.4 | 1.03 | 0.954 | 0.938 |
| HOP-62 | 0.408 | 0.3 | 0.355 | 0.649 | 0.517 | 0.598 | 1.19 | 0.999 | 1.09 | 0.519 | 0.481 | 0.416 | 0.43 | 0.446 | 0.646 | 0.533 | 0.427 | 1.14 | 0.607 | 0.836 |
| LC-2-ad | 0.53 | 0.501 | 0.422 | 0.89 | 0.779 | 0.702 | 0.531 | 0.544 | 0.518 | 0.504 | 0.399 | 0.512 | 0.515 | 0.483 | 0.626 | 0.584 | 0.633 | 0.701 | 0.831 | 0.816 |
| LCLC-97TM1 |  | 0.206 | 0.236 |  | 0.241 | 0.234 | 0.535 | 0.368 | 0.344 | 0.203 | 0.218 | 0.237 | 0.214 | 0.194 | 0.448 | 0.402 | 0.419 | 0.197 | 0.179 | 0.202 |
| LK-2 | 0.508 | 0.742 | 0.705 | 0.488 | 0.682 | 0.412 | 0.912 | 0.778 | 0.941 | 0.862 | 0.574 | 0.615 | 0.908 | 0.651 | 0.505 | 0.66 | 0.555 | 0.643 | 0.553 | 0.301 |
| LOU-NH91 | 0.524 | 0.527 | 0.561 | 0.801 | 0.8 | 0.796 | 0.73 | 0.666 | 0.717 | 0.538 | 0.547 | 0.542 | 0.526 | 0.53 | 0.607 | 0.562 | 0.661 | 0.996 | 0.92 | 0.915 |
| LU99A | 0.407 | 0.343 | 0.374 | 0.459 | 0.401 | 0.318 | 1.02 | 0.694 | 0.776 | 0.438 | 0.418 | 0.425 | 0.374 | 0.386 | 0.878 | 0.762 | 0.875 | 0.47 | 0.524 | 0.558 |
| LXF-289 | 0.574 | 0.502 | 0.534 | 0.981 | 0.937 | 0.974 | 0.879 | 0.826 | 0.852 | 0.62 | 0.631 | 0.627 | 0.577 | 0.616 | 0.504 | 0.475 | 0.463 | 0.929 | 0.795 | 0.821 |
| NCI-H23 | 0.484 | 0.526 | 0.478 | 0.22 | 0.293 | 0.246 | 1.11 | 0.804 | 0.817 | 0.513 |  | 0.46 | 0.472 | 0.454 | 0.828 | 0.743 | 0.699 | 0.627 | 0.571 | 0.605 |
| NCI-H322M | 0.503 | 0.497 | 0.51 | 0.542 | 0.643 | 0.583 | 1.29 | 1.12 | 1.2 | 0.472 | 0.469 | 0.502 | 0.433 | 0.478 | 0.882 | 0.812 | 0.819 | 1.09 | 0.915 | 0.999 |
| NCI-H441 | 0.212 | 0.16 | 0.211 | 1.34 | 1.2 | 0.996 | 0.411 | 0.604 | 0.613 | 0.197 | 0.179 | 0.182 | 0.204 | 0.157 | 1.16 | 0.905 | 0.813 | 0.559 | 0.504 | 0.49 |
| NCI-H460 | 0.16 | 0.133 | 0.113 | 0.571 | 0.555 | 0.625 | 1.42 | 1.01 | 0.967 | 0.191 | 0.12 | 0.142 | 0.26 | 0.136 | 0.613 | 0.469 | 0.451 | 1.55 | 0.829 | 0.695 |
